As usually defined, the EC50 is the concentration giving half of the maximal effect. A higher EC50 goes with a less potent agent.

For this assay, the target named is T1, KCNQ 2/3 channels (HEK293 cells stably expressing human KCNQ2 and KCNQ3 subunits) (Homo sapiens, UniProt O43525+O43526).
T1 construct: expressed in transfected cells; host or cells: HEK293
In words: KCNQ2/3 channel activation, thallium flux FLIPR assay with BTC-AM dye. It counts as cell-based. As to conditions: for Emax: HEK293, maximum response relative to the response produced by 10 μM retigabine (set at 100%), read-out: Max. %; for EC50: HEK293 cells expressing human KCNQ2 and KCNQ3, thallium flux, FLIPR. As to the method:
The following example describes the assay that can be used to identify compounds that activate KCNQ 2/3 channels.
HEK293 cells stably expressing human KCNQ2 and KCNQ3 subunits were seeded in 96-well, black-walled, clear-bottomed, poly-D-lysine coated plates (BD Biosciences, Bedford, Mass.) at a density of 1×10^5 cells per well 24 hours before the assay. On the assay day, BTC-AM dye (Invitrogen, Carlsbad, Calif.) was loaded into the cells by replacing the cell culture medium with 55 μL/well of 3 μg/mL dye in DPBS. Dye loading was allowed to proceed for 2 hours at room temperature and then cells were washed twice with 50 μL/well of assay buffer (in mM: 10 HEPES pH 7.3, 5 glucose, 140 Na-gluconate, 2.5 K-gluconate, 3.6 Ca-gluconate, 2 MgSO4, 0.1 Ouabain) to remove unloaded dye. Cells were incubated in 50 μL of assay buffer before loading onto a FLIPR system (Molecular Devices, Sunnyvale, Calif.). Various concentrations of compounds to be assayed were added to the cells in 50 μL of assay buffer and incubated for 4 minutes. The fluorescence signal was initiated by adding 100 μL of assay buffer containing 6 mM TlNO3 and 10 mM K2SO4. Fluors were excited using the 488-nm line of an argon laser and emission was filtered using a 540±30 nm bandpass filter. Fluorescent signals were recorded for 3 minutes. Sums of the responses over basal responses were plotted versus concentrations of test compounds to obtain an EC50 value. The maximum response for each test compound was determined relative to the response produced by 10 μM retigabine. The maximum response of retigabine at 10 μM was set at 100%.

For `O=C(CC1(C(F)(F)F)CCCC1)Nn1nc(Cc2ccccc2)c2ccccc2c1=O` [Example 139, N-(4-benzyl-1-oxophthalazin-2(1H)-yl)-2-[1-(trifluoromethyl)cyclopentyl]acetamide], the Emax came out at 20% and the EC50 was greater than 10 µM.
As for `O=C(CCC(F)(F)F)Nn1nc(-c2ccc(Cl)cc2)c2ccccc2c1=O` [Example 123, N-[4-(4-chlorophenyl)-1-oxophthalazin-2(1H)-yl]-4,4,4-trifluorobutanamide], the Emax came to 48% and the half-maximal effective concentration (EC50) lay in the range of 0.5 to 1 µM.
On to `O=C(CC1CC2CCC1C2)Nn1nc(C(F)(F)F)c2ccccc2c1=O` (racemic) [Example 58, (±)-2-(exo-bicyclo[2.2.1]heptan-2-yl)-N-[1-oxo-4-(trifluoromethyl)phthalazin-2(1H)-yl]acetamide], for which the Emax turned out to be 137% and the EC50 lay within 0.1 to 0.5 µM.
Consider `CC1(C)[C@H]2CC[C@@H](CC(=O)Nn3nc(-c4ccc(Cl)cc4)c4ccccc4c3=O)[C@@H]1C2` [Example 115, N-[4-(4-chlorophenyl)-1-oxophthalazin-2(1H)-yl]-2-[(1S,2S,5S)-6,6-dimethylbicyclo[3.1.1]hept-2-yl]acetamide], for which the Emax was found to be 69% and the EC50 lay within 0.1 to 0.5 µM.
As to `Cc1nn(NC(=O)Cc2cc(F)cc(F)c2)c(=O)c2ccccc12` [Example 38, 2-(3,5-difluorophenyl)-N-(4-methyl-1-oxophthalazin-2(1H)-yl)acetamide], the Emax was determined as 126% and the EC50 is greater than 10 µM.
On to `O=C(Cc1ccc(Cl)cc1)Nn1nc(-c2ccccc2)c2ccsc2c1=O` [Example 31, 2-(4-chlorophenyl)-N-(7-oxo-4-phenylthieno[2,3-d]pyridazin-6(7H)-yl)acetamide], for which the Emax is 30% and the EC50 was in the range of 1 to 10 µM.
Turning to `O=C(Cc1ccc(Cl)cc1)Nn1nc(C2CCCC2)c2ccccc2c1=O` [Example 72, 2-(4-chlorophenyl)-N-(4-cyclopentyl-1-oxophthalazin-2(1H)-yl)acetamide], the Emax is 130% and the 50% effective concentration (EC50) was less than 0.1 µM.
For `CC(C)c1nn(NC(=O)CC23CC4CC(CC(C4)C2)C3)c(=O)c2cc(C(F)(F)F)ccc12` [Example 173, 2-(adamantan-1-yl)-N-[4-isopropyl-1-oxo-7-(trifluoromethyl)phthalazin-2(1H)-yl]acetamide], the Emax is -12% and the EC50 is greater than 10 µM.
`CC(C)c1nn(NC(=O)Cc2ccc(Cl)cc2)c(=O)c2ccccc12` [Example 1, 2-(4-chlorophenyl)-N-(4-isopropyl-1-oxophthalazin-2(1H)-yl)acetamide]: the Emax was found to be 125% and the EC50 is 0.1 to 0.5 µM.
In the case of `O=C(CC12CC3CC(CC(C3)C1)C2)Nn1nc(-c2ccccc2)c2c(c1=O)CCCC2` [Example 185, 2-(adamantan-1-yl)-N-(1-oxo-4-phenyl-5,6,7,8-tetrahydrophthalazin-2(1H)-yl)acetamide], the Emax turned out to be 144% and the EC50 was less than 0.1 µM.
Turning to `O=C(CC12CC3CC(CC(F)(C3)C1)C2)Nn1nc(-c2ccccc2)c2ccsc2c1=O` [Example 179, 2-(3-fluoroadamantan-1-yl)-N-(7-oxo-4-phenylthieno[2,3-d]pyridazin-6(7H)-yl)acetamide], the Emax is 169% and the EC50 is 0.5 to 1 µM.
The like results for `O=C(Cc1cc(F)cc(F)c1)Nn1nc(-c2ccccc2)c2sccc2c1=O` [Example 10, 2-(3,5-difluorophenyl)-N-(4-oxo-7-phenylthieno[2,3-d]pyridazin-5(4H)-yl)acetamide] were, in that order, 179% and 1 to 10 µM.
With `Cc1ccc(CC(=O)Nn2nc(C(F)(F)F)c3ccccc3c2=O)s1` [Example 56, 2-(5-methyl-2-thienyl)-N-[1-oxo-4-(trifluoromethyl)phthalazin-2(1H)-yl]acetamide], the Emax was 51% and the EC50 fell in the range of 1 to 10 µM.
On to `O=C(CC12CC3CC(CC(C3)C1)C2)Nn1nc(-c2ccc(Br)cc2)c2ccccc2c1=O` [Example 2, 2-(1-adamantyl)-N-[4-(4-bromophenyl)-1-oxophthalazin-2(1H)-yl]acetamide], for which the Emax was 193% and the EC50 was in the range of 0.1 to 0.5 µM.
The like results for `Cc1ccc(-c2nn(NC(=O)Cc3ccc(Cl)cc3)c(=O)c3ccccc23)cc1C` [Example 165, 2-(4-chlorophenyl)-N-[4-(3,4-dimethylphenyl)-1-oxophthalazin-2(1H)-yl]acetamide] were, in that order, 112% and 0.1 to 0.5 µM.
For `O=C(CC1CCCC1)Nn1nc(-c2ccc(Cl)cc2)c2ccccc2c1=O` [Example 109, N-[4-(4-chlorophenyl)-1-oxophthalazin-2(1H)-yl]-2-cyclopentylacetamide], the Emax turned out to be 138% and the EC50 was less than 0.1 µM.
For `CC(C)CCC(=O)Nn1nc(-c2ccc(Cl)cc2)c2ccccc2c1=O` [Example 110, N-[4-(4-chlorophenyl)-1-oxophthalazin-2(1H)-yl]-4-methylpentanamide], the Emax came to 120% and the concentration for a half-maximal effect (EC50) is less than 0.1 µM.
Consider `Cc1ccc(-c2nn(NC(=O)CC34CC5CC(CC(C5)C3)C4)c(=O)c3ccccc23)cc1` [Example 138, 2-(adamantan-1-yl)-N-[4-(4-methylphenyl)-1-oxophthalazin-2(1H)-yl]acetamide], for which the Emax was 129% and the EC50 was less than 0.1 µM.
For `O=C(Nn1nc(-c2ccc(Cl)cc2)c2ccccc2c1=O)[C@@H]1C[C@H]1c1ccccc1` (relative stereo) [Example 120, trans-N-[4-(4-chlorophenyl)-1-oxophthalazin-2(1H)-yl]-2-phenylcyclopropanecarboxamide], the Emax was 103% and the EC50 fell in the range of 0.5 to 1 µM.
Consider `O=C(C[C@H]1C[C@@H]2CC[C@H]1C2)Nn1nc(C2CCC2)c2ccccc2c1=O` (racemic) [Example 68, (±)-2-(exo-bicyclo[2.2.1]heptan-2-yl)-N-(4-cyclobutyl-1-oxophthalazin-2(1H)-yl)acetamide], for which the Emax is 164% and the EC50 is less than 0.1 µM.
As for `COc1ccc(-c2nn(NC(=O)CC34CC5CC(CC(C5)C3)C4)c(=O)c3ccccc23)cc1` [Example 154, 2-(adamantan-1-yl)-N-[4-(4-methoxyphenyl)-1-oxophthalazin-2(1H)-yl]acetamide], the Emax was 136% and the concentration giving a half-maximal response (EC50) was less than 0.1 µM.
Turning to `O=C(Cc1cc(F)cc(F)c1)Nn1nc(C(F)(F)F)c2ccccc2c1=O` [Example 11, 2-(3,5-difluorophenyl)-N-[1-oxo-4-(trifluoromethyl)phthalazin-2(1H)-yl]acetamide], the Emax was 77% and the EC50 is 0.1 to 0.5 µM.
For `O=C(Cc1ccc(Cl)cc1)Nn1nc(-c2ccc(F)cc2)c2ccccc2c1=O` [Example 132, 2-(4-chlorophenyl)-N-[4-(4-fluorophenyl)-1-oxophthalazin-2(1H)-yl]acetamide], the Emax was found to be 123% and the EC50 lay within 0.1 to 0.5 µM.
The like results for `COc1ccc(-c2nn(NC(=O)CC3CCC(C)CC3)c(=O)c3ccccc23)cc1` (stereo not shown) [Example 152, N-[4-(4-methoxyphenyl)-1-oxophthalazin-2(1H)-yl]-2-(4-methylcyclohexyl)acetamide] were, in that order, 114% and 0.1 to 0.5 µM.
In the case of `CC(C)c1nn(NC(=O)CC23CC4CC(CC(C4)C2)C3)c(=O)c2ccccc12` [Example 6, 2-(1-adamantyl)-N-(4-isopropyl-1-oxophthalazin-2(1H)-yl)acetamide], the Emax turned out to be 200% and the EC50 was less than 0.1 µM.
Taken in the same sequence, the figures for `COc1cccc(CC(=O)Nn2nc(-c3ccc(Cl)cc3)c3ccccc3c2=O)c1` [Example 105, N-[4-(4-chlorophenyl)-1-oxophthalazin-2(1H)-yl]-2-(3-methoxyphenyl)acetamide] were 84% and 0.1 to 0.5 µM.
Regarding `O=C(C[C@H]1C[C@@H]2CC[C@H]1C2)Nn1nc(C2(c3ccccc3)CC2)c2ccccc2c1=O` (racemic) [Example 172, (±)-2-(exo-bicyclo[2.2.1]hept-2-yl)-N-[1-oxo-4-(1-phenylcyclopropyl)phthalazin-2(1H)-yl]acetamide], the Emax was 195% and the EC50 is less than 0.1 µM.
As to `CC(C)(CC(=O)Nn1nc(-c2ccc(C(F)(F)F)cc2)c2ccccc2c1=O)c1ccccc1` [Example 148, 3-methyl-N-{1-oxo-4-[4-(trifluoromethyl)phenyl]phthalazin-2(1H)-yl}-3-phenylbutanamide], the Emax is 114% and the EC50 was in the range of 0.1 to 0.5 µM.
On to `O=C(C[C@@H]1C[C@@H]2CC[C@H]1C2)Nn1nc(-c2ccc(F)cc2)c2ccccc2c1=O` [Example 129, 2-[(1S,2S,4R)-bicyclo[2.2.1]hept-2-yl]-N-[4-(4-fluorophenyl)-1-oxophthalazin-2(1H)-yl]acetamide], for which the Emax worked out at 143% and the EC50 was less than 0.1 µM.

These data come from patent publication US8629143B2, “Potassium channel modulators” (AbbVie Inc., priority 2009, dated 2014).
